In ChEMBL document CHEMBL5729357, “Isothiazolo[5,4-D]pyrimidine compound as IRAK4 inhibitor” (2022) one finds IC50 data, which are given here for two compounds.

The target of this assay is T1, Interleukin-1 receptor-associated kinase 4 (Homo sapiens, UniProt Q9NWZ3).
T1 sequence (Q9NWZ3 whole entry): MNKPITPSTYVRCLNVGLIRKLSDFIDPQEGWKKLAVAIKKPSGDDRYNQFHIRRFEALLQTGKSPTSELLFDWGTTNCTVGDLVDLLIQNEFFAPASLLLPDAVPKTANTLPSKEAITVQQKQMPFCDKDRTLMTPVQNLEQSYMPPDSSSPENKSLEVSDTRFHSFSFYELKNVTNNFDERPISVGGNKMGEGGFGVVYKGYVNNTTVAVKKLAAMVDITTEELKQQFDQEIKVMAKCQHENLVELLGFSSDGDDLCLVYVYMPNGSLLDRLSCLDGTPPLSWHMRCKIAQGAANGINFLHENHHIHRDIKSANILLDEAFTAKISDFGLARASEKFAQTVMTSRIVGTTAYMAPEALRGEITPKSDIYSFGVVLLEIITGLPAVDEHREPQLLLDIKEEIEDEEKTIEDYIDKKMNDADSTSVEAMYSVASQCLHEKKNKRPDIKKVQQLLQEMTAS
Briefly: In Vitro Enzymatic Activity Evaluation: The inhibitory activity of the test compounds against human IRAK4 was evaluated by measuring IC50 values in a 33P-labeled kinase activity assay (Reaction Biology Corp).Buffer conditions: 20 mM Hepes (pH 7.5), 10 mM MgCl2, 1 mM EGTA, 0.02% Brij35, 0.02 mg/mL BSA, 0.1 mM Na3VO4, 2 mM DTT, 1% DMSO.Procedures: The test compound was dissolved in DMSO at room temperature to prepare a 10 mM solution for later use. The substrate was dissolved in fresh buffer, to which the kinase was added and mixed well. The DMSO solution containing the test compound was added to the above mixed reaction system by an acoustic technique (Echo 550). The concentrations of the compounds in reaction system were 10 μM, 3.33 μM, 1.11 μM, 0.370 μM, 0.123 μM, 41.2 nM, 13.7 nM, 4.57 nM, 1.52 nM, and 0.508 nM. After 15 minutes of incubation, the reaction was started by adding 33P-ATP (activity: 0.01 μCi/μL; the corresponding concentration is listed in Table 1). Supplier's catalog number, lot number and concentration information in the reaction system for IRAK4 and its substrate are listed in Table 1. After 120 minutes of reaction at room temperature, the resulting solution was loaded on P81 ion exchange chromatography paper sheet (Whatman #3698-915). […].

pIC50: −log10 of the molar value.

The term pIC50 denotes −log10 of the IC50, conventionally taken in molar units. A higher pIC50 goes with a low IC50. `Cc1nsc2nc(Nc3cnn(C4CCOCC4)c3)nc(N[C@H]3CC[C@H](N4C[C@H]5C[C@@H]4CN5C(C)C)CC3)c12` showed a pIC50 of 6.64. On to `Cc1nsc2nc(Nc3cnn(C4(C)COC4)c3)nc(N[C@H]3CC[C@H](N4CCOCC4)CC3)c12`, for which the pIC50 is 7.87. This pIC50 lies 1.23 log units higher than the previous one.
